Reference: PubChem BioAssay AID1963981 (Molecular Pharmacology Branch, DTP, NCI, 2024)

Tested on: 354836-022-R-J1-PDC multicell spheroid viability
Assay: Anticancer human tumor 354836-022-R-J1-PDC patient-derived head and neck squamous cell carcinoma cell line growth inhibition [PI3K]
Conditions: for viability, T/C: stronger effect = lower value
Procedure, shortened: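 We assembled tumor spheroids that included a stromal compartment of HUVEC and MSCs, then exposed them to targeted agents alone and together with PI3K pathway inhibitors. Concentration series descended by half-log from clinically achievable Cmax levels. Viability served as the endpoint.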

[1] = curve of first compound, second compound 0.0316 µM
[2] = curve of first compound, second compound 0.1 µM
[3] = curve of first compound, second compound 0.316 µM
[4] = curve of first compound, second compound 1 µM
[5] = curve of first compound, second compound 3.16 µM
[6] = curve of first compound, second compound 10 µM
[7] = second compound 0.0316 µM, first compound 0.0316 µM
[8] = second compound 0.0316 µM, first compound 0.1 µM
[9] = second compound 0.1 µM, first compound 0.0316 µM
[10] = second compound 0.1 µM, first compound 0.1 µM
[11] = second compound 0.316 µM, first compound 0.0316 µM
[12] = second compound 0.316 µM, first compound 0.1 µM
[13] = second compound 1 µM, first compound 0.0316 µM
[14] = second compound 1 µM, first compound 0.1 µM
[15] = second compound 3.16 µM, first compound 0.0316 µM
[16] = second compound 3.16 µM, first compound 0.1 µM
[17] = second compound 10 µM, first compound 0.0316 µM
[18] = second compound 10 µM, first compound 0.1 µM
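Further: spheroids exposed to agents for seven days before the viability read.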

Q: Which results are given for `Cn1ncnc1[C@H]1c2n[nH]c(=O)c3cc(F)cc(c23)N[C@@H]1c1ccc(F)cc1` + Cc1nc(NC(=O)N2CCCC2C(N)=O)sc1-c1ccnc(C(C)(C)C(F)(F)F)c1?
A: IC50 [1]: > 100 nM; IC50 [2]: > 100 nM; IC50 [3]: > 100 nM; IC50 [4]: > 100 nM; IC50 [5]: > 100 nM; IC50 [6]: < 0.316 nM; viability, T/C (second compound 0.0316 µM, first compound 0.000316 µM): 115%; viability, T/C (second compound 0.0316 µM, first compound 0.001 µM): 90.7%; viability, T/C (second compound 0.0316 µM, first compound 0.00316 µM): 107%; viability, T/C (second compound 0.0316 µM, first compound 0.01 µM): 98.4%; viability, T/C [7]: 105%; viability, T/C [8]: 88.3%; viability, T/C (second compound 0.1 µM, first compound 0.000316 µM): 93.6%; viability, T/C (second compound 0.1 µM, first compound 0.001 µM): 88.7%; viability, T/C (second compound 0.1 µM, first compound 0.00316 µM): 98%; viability, T/C (second compound 0.1 µM, first compound 0.01 µM): 93%; viability, T/C [9]: 98.5%; viability, T/C [10]: 94%; viability, T/C (second compound 0.316 µM, first compound 0.000316 µM): 85%; viability, T/C (second compound 0.316 µM, first compound 0.001 µM): 103%; viability, T/C (second compound 0.316 µM, first compound 0.00316 µM): 99.5%; viability, T/C (second compound 0.316 µM, first compound 0.01 µM): 95.8%; viability, T/C [11]: 81.4%; viability, T/C [12]: 89.9%; viability, T/C (second compound 1 µM, first compound 0.000316 µM): 80.8%; viability, T/C (second compound 1 µM, first compound 0.001 µM): 85.3%; viability, T/C (second compound 1 µM, first compound 0.00316 µM): 83.3%; viability, T/C (second compound 1 µM, first compound 0.01 µM): 86.6%; viability, T/C [13]: 85.3%; viability, T/C [14]: 77.3%; viability, T/C (second compound 3.16 µM, first compound 0.000316 µM): 58.2%; viability, T/C (second compound 3.16 µM, first compound 0.001 µM): 70.1%; viability, T/C (second compound 3.16 µM, first compound 0.00316 µM): 62.8%; viability, T/C (second compound 3.16 µM, first compound 0.01 µM): 67.3%; viability, T/C [15]: 59.3%; viability, T/C [16]: 62.2%; viability, T/C (second compound 10 µM, first compound 0.000316 µM): 39.7%; viability, T/C (second compound 10 µM, first compound 0.001 µM): 38.9%; viability, T/C (second compound 10 µM, first compound 0.00316 µM): 43.4%; viability, T/C (second compound 10 µM, first compound 0.01 µM): 45.5%; viability, T/C [17]: 31.1%; viability, T/C [18]: 30.3%

Q: Which results are given for `CC(Cn1ccc(-c2ccc(C#N)c(Cl)c2)n1)NC(=O)c1cc(C(C)O)[nH]n1` (stereo unspecified) + Cc1nc(NC(=O)N2CCCC2C(N)=O)sc1-c1ccnc(C(C)(C)C(F)(F)F)c1?
A: IC50 [1]: > 10000 nM; IC50 [2]: > 10000 nM; IC50 [3]: > 10000 nM; IC50 [4]: > 10000 nM; IC50 [5]: > 10000 nM; IC50 [6]: < 31.6 nM; viability, T/C [7]: 109%; viability, T/C [8]: 88.7%; viability, T/C (second compound 0.0316 µM, first compound 0.316 µM): 96%; viability, T/C (second compound 0.0316 µM, first compound 1 µM): 83.6%; viability, T/C (second compound 0.0316 µM, first compound 3.16 µM): 97.4%; viability, T/C (second compound 0.0316 µM, first compound 10 µM): 71.6%; viability, T/C [9]: 106%; viability, T/C [10]: 93%; viability, T/C (second compound 0.1 µM, first compound 0.316 µM): 97.8%; viability, T/C (second compound 0.1 µM, first compound 1 µM): 85.6%; viability, T/C (second compound 0.1 µM, first compound 3.16 µM): 91.1%; viability, T/C (second compound 0.1 µM, first compound 10 µM): 82%; viability, T/C [11]: 88.8%; viability, T/C [12]: 91.8%; viability, T/C (second compound 0.316 µM, first compound 0.316 µM): 81%; viability, T/C (second compound 0.316 µM, first compound 1 µM): 102%; viability, T/C (second compound 0.316 µM, first compound 3.16 µM): 81.2%; viability, T/C (second compound 0.316 µM, first compound 10 µM): 67.6%; viability, T/C [13]: 74.2%; viability, T/C [14]: 66%; viability, T/C (second compound 1 µM, first compound 0.316 µM): 83%; viability, T/C (second compound 1 µM, first compound 1 µM): 82.3%; viability, T/C (second compound 1 µM, first compound 3.16 µM): 83.3%; viability, T/C (second compound 1 µM, first compound 10 µM): 61.9%; viability, T/C [15]: 62.4%; viability, T/C [16]: 61.1%; viability, T/C (second compound 3.16 µM, first compound 0.316 µM): 60.5%; viability, T/C (second compound 3.16 µM, first compound 1 µM): 71.8%; viability, T/C (second compound 3.16 µM, first compound 3.16 µM): 71.3%; viability, T/C (second compound 3.16 µM, first compound 10 µM): 57%; viability, T/C [17]: 43.6%; viability, T/C [18]: 33.7%; viability, T/C (second compound 10 µM, first compound 0.316 µM): 39.9%; viability, T/C (second compound 10 µM, first compound 1 µM): 44.4%; viability, T/C (second compound 10 µM, first compound 3.16 µM): 45.5%; viability, T/C (second compound 10 µM, first compound 10 µM): 37.1%

Q: With `Cn1ncc(Cl)c1-c1cc(C(=O)NC(CN)Cc2cccc(F)c2)sc1Cl` (stereo unspecified) as the compound, how does the viability, T/C (compound 0.0316 µM) read?
A: 83.5% [middle of 4 runs]

Q: What about the viability, T/C (compound 0.1 µM) of the same compound?
A: 51.3% [middle of 4 runs]

Q: What about the viability, T/C (compound 0.316 µM) of the same compound?
A: 35.9% [middle of 4 runs]

Q: And the viability, T/C (compound 1 µM)?
A: 22.7% [middle of 4 runs]

Q: And the viability, T/C (compound 3.16 µM)?
A: 15.5% [middle of 4 runs]

Q: And the viability, T/C (compound 10 µM)?
A: 5.55% [middle of 4 runs]

Q: And the IC50 (curve of compound)?
A: 114 nM [middle of 4 runs]
